These results are taken from US12072333B2, “Method and apparatus for selective removal of cells from a cell suspension by mechanical lysis” (UNIVERSITY OF IOWA RESEARCH FOUNDATION, priority 2016, dated 2024).

The structures appear in SMILES notation.

This assay deals with prostate cancer cells. The assay is described as follows: Cell killing by ionomycin measured by uptake of trypan blue dye. In kind it is cell-based. The following applies: prostate cancer cells treated with ionomycin; after 30 minute; FIG. 1B.

For `C[C@H](CCC(=O)O)C[C@H](C)C[C@H](C)C(=O)/C=C(\O)[C@H](C)C[C@H](C)C/C=C/[C@@H](C)[C@@H](O)[C@@H](C)[C@@H](O)C[C@@H]1CC[C@@](C)([C@H]2CC[C@@](C)([C@@H](C)O)O2)O1` [ionomycin], the “cell death as measured by uptake of trypan blue dye” value was “rapidly kills these cells”.
